In ChEMBL document CHEMBL3400024, “α-Adrenoceptor antagonistic and hypotensive properties of novel arylpiperazine derivatives of pyrrolidin-2-one” (Bioorg Med Chem, 2015):
The source made the active and inactive calls. The calls are words filed in the database; no cut-off is given here.

Assays:
[1] = target: T1, Adrenergic receptor alpha-1 (Rattus norvegicus, UniProt P15823+P23944+P43140); experiment: Displacement of [3H]prazosin from rat cerebral cortex alpha-1 adrenergic receptor by liquid scintillation counting analysis; format: tissue-based
T1 sequence (P15823 whole entry): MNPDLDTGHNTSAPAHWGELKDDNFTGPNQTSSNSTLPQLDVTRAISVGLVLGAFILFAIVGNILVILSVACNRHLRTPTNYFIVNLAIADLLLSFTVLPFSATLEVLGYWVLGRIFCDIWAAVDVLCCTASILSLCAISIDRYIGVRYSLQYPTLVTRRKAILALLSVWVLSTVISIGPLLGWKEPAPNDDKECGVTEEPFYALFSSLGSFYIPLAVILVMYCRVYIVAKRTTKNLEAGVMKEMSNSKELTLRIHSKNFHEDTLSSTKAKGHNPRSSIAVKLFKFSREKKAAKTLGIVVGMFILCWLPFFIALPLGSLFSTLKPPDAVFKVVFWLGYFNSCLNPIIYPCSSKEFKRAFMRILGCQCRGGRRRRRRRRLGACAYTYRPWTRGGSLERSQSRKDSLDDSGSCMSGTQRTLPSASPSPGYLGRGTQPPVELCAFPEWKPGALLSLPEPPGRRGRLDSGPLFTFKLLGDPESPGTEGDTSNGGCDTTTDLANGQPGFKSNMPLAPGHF
T1 sequence (P23944 whole entry): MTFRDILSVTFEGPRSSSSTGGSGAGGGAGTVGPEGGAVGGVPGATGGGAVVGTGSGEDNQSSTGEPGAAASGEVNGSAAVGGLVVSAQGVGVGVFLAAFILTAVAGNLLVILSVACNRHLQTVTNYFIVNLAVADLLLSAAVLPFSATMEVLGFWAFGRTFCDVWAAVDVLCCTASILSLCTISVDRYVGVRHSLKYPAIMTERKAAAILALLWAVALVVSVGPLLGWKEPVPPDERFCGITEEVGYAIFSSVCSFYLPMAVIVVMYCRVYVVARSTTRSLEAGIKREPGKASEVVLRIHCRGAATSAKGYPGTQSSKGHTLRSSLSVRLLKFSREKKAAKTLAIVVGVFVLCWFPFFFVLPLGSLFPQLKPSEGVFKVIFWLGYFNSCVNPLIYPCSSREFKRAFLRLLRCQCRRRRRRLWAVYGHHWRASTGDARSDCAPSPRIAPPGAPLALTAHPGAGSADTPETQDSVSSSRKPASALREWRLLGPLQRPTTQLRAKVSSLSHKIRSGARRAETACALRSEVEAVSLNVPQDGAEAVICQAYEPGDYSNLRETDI
T1 sequence (P43140 whole entry): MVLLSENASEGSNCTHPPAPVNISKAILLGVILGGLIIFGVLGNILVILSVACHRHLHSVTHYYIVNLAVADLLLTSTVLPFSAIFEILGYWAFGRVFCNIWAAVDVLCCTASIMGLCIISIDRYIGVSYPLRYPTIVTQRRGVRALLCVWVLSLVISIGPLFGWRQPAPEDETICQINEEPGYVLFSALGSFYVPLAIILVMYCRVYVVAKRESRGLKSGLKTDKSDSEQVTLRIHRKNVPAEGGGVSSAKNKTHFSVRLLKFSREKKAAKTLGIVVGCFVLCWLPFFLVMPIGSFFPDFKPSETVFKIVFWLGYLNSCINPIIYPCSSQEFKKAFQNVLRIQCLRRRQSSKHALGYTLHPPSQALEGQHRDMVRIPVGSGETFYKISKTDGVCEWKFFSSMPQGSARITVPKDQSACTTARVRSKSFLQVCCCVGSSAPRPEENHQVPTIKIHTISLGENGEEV

[2] = target: T2, Adrenergic receptor alpha-2 (Rattus norvegicus, UniProt P22086+P19328+P22909); experiment: Displacement of [3H]clonidine from rat cerebral cortex alpha-2 adrenergic receptor by liquid scintillation counting analysis; format: tissue-based
T2 sequence (P22086 whole entry): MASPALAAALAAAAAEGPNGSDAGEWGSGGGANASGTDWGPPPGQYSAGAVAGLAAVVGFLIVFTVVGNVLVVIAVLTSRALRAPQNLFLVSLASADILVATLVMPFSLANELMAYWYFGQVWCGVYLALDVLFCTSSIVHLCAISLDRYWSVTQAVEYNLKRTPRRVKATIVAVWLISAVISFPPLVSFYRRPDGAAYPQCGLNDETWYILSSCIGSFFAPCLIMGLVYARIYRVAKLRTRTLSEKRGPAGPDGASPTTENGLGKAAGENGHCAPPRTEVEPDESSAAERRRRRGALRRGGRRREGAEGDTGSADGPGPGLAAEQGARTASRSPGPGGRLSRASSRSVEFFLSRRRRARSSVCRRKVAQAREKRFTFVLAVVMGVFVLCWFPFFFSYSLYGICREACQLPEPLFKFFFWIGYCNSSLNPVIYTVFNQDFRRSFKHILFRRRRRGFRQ
T2 sequence (P19328 whole entry): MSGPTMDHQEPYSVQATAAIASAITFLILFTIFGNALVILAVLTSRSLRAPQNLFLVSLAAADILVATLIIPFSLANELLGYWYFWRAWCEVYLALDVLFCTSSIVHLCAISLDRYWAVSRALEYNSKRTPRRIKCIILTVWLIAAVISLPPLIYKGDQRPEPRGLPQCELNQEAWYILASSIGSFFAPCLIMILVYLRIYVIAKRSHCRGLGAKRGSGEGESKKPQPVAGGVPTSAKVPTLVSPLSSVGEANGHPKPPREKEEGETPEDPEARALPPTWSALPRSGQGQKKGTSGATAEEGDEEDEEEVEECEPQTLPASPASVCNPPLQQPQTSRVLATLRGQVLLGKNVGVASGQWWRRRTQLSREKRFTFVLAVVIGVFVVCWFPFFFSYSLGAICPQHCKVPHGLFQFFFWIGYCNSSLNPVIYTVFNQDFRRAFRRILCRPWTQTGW
T2 sequence (P22909 whole entry): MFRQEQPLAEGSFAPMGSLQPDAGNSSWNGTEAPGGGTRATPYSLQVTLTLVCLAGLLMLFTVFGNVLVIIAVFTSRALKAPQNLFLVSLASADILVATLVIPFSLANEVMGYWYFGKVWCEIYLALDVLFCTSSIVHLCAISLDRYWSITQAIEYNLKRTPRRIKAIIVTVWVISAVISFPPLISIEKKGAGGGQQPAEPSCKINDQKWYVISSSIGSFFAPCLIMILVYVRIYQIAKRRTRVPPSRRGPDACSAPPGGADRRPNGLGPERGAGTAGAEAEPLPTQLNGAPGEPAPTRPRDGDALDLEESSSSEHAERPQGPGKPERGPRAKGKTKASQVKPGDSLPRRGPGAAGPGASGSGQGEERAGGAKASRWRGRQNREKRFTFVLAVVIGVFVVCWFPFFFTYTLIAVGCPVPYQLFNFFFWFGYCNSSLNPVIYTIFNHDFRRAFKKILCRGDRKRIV

[3] = target: T3, Alpha-1A adrenergic receptor (Homo sapiens, UniProt P35348); experiment: Antagonist activity at alpha-1A adrenergic receptor (unknown origin) incubated for 30 mins prior to agonist addition measured after 5 hrs by CCF4-AM staining-based cellular assay
T3 sequence (P35348 whole entry): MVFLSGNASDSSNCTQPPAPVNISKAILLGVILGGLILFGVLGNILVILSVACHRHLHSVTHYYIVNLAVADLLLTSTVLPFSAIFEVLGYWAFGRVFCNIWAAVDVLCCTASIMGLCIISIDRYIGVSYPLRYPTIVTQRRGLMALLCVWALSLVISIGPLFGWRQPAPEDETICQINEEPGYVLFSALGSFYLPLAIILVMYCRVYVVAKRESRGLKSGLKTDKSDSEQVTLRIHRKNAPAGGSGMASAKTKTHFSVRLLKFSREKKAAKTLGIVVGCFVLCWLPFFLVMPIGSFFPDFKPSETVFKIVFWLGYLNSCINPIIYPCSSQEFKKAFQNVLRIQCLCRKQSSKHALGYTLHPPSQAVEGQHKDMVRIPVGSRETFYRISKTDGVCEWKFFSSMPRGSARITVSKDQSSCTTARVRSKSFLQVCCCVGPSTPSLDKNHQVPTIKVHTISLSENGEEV

[4] = target: T4, Alpha-1B adrenergic receptor (Homo sapiens, UniProt P35368); experiment: Antagonist activity at alpha-1B adrenergic receptor (unknown origin) incubated for 30 mins prior to agonist addition measured after 5 hrs by CCF4-AM staining-based cellular assay
T4 sequence (P35368 whole entry): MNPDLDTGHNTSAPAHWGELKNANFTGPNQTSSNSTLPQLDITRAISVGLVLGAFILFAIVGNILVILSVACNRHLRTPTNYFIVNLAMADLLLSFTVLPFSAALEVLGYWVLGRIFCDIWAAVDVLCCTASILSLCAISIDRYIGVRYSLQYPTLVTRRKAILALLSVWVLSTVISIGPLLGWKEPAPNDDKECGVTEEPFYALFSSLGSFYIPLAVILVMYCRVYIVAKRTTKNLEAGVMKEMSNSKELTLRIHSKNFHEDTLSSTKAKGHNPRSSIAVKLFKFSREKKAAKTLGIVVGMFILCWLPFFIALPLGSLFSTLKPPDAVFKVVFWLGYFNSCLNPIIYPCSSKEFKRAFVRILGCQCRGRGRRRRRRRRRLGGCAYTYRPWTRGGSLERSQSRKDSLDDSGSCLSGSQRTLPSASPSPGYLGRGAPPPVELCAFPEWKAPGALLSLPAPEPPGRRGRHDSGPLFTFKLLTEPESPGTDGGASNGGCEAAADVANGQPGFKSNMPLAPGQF

[5] = target: T3, Alpha-1A adrenergic receptor; experiment: Agonist activity at alpha-1A adrenergic receptor (unknown origin) after 5 hrs by CCF4-AM staining-based cellular assay
[6] = tested on: Rattus norvegicus; experiment: Hypotensive activity in normotensive anesthetized Wistar rat assessed as reduction of systolic pressure at 1 to 5 mg/kg, iv measured up to 60 mins; format: functional, organism-based
[7] = tested on: Rattus norvegicus; experiment: Hypotensive activity in normotensive anesthetized Wistar rat assessed as reduction of diastolic pressure at 1 to 5 mg/kg, iv measured up to 60 mins; format: functional, organism-based
[8] = target: T5, Adrenergic receptor alpha-1 (Homo sapiens, UniProt P35348+P25100+P35368); experiment: Binding affinity to alpha-1 adrenergic receptor (unknown origin)
T5 sequence (P35348 whole entry): T3 sequence (P35348 whole entry)
T5 sequence (P25100 whole entry): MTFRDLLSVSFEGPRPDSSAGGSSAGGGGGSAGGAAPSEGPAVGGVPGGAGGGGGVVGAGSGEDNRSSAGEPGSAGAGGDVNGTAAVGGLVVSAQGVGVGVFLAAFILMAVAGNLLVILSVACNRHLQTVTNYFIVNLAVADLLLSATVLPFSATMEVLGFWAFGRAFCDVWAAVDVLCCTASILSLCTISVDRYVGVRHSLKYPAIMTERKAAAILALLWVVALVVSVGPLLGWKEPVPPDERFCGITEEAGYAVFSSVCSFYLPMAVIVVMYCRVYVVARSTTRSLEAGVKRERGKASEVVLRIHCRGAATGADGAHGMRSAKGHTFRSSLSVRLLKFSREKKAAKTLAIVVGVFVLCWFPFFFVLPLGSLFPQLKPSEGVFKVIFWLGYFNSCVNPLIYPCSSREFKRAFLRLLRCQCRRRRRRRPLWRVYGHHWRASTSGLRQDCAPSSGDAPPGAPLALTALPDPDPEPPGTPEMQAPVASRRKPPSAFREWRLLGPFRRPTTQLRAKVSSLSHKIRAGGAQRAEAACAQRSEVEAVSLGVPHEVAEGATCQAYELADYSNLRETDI
T5 sequence (P35368 whole entry): T4 sequence (P35368 whole entry)

Row | SMILES | pKi [1] | pKi [2] | EC50 ([3]; read-out: EC50) | EC50 [4] | EC50 [5] | EC50 [3] | Activity [6] | Activity [7] | pKi [8]
1 | COc1ccccc1N1CCN(CCN2CCCC2=O)CC1.Cl | < 5 | < 5 |  |  |  |  |  |  | 
2 | Cl.O=C1CCCN1CCN1CCN(c2ccc(Cl)cc2)CC1 | 5.51 | < 5 |  |  |  |  |  |  | 
3 | Cl.O=C1CCCN1CCN1CCN(C(c2ccc(F)cc2)c2ccc(F)cc2)CC1 | 6.43 | 6.01 |  |  |  |  |  |  | 
4 | COc1ccc(N2CCN(CCCCN3CCCC3=O)CC2)cc1.Cl | < 5 | < 5 |  |  |  |  |  |  | 
5 | Cl.O=C1CCCN1CCCCN1CCN(C(c2ccc(F)cc2)c2ccc(F)cc2)CC1 | 7.07 | 5.92 | 329 nM | 131 nM |  |  |  |  | 
6 | Cl.O=C1CCCN1CCCCN1CCN(c2ccccc2O)CC1 | 6.44 | < 5 |  | 165 nM | Not Active | Not Active |  |  | 
7 | Cc1ccccc1N1CCN(CCN2CCCC2=O)CC1.Cl | 6.09 | 5.92 |  |  |  |  |  |  | 
8 | Cl.O=C1CCCN1CCCCN1CCN(C(c2ccccc2)c2ccccc2)CC1 | 6.65 | < 5 |  | 289 nM | Not Active | Not Active |  |  | 
9 | COc1ccc(N2CCN(CCN3CCCC3=O)CC2)cc1.Cl | 5.92 | < 5 |  |  |  |  |  |  | 
10 | Cl.O=C1CCCN1CCCCN1CCN(c2ccc(F)cc2F)CC1 | 6.77 | < 5 |  | 46.9 nM | Not Active | Not Active |  |  | 
11 | Cl.O=C1CCCN1CCCCN1CCN(c2ccccc2Cl)CC1 | 7.3 | 6.01 | 138 nM | 2.53 nM |  |  | Active | Active | 
12 | O=C1CCCN1CCN1CCN(c2ccccc2Cl)CC1 |  |  |  |  |  |  |  |  | 7.13
13 | Cc1ccccc1N1CCN(CCN2CCCC2=O)CC1 |  |  |  |  |  |  |  |  | 7.05
14 | Cc1ccccc1N1CCN(CCCCN2CCCC2=O)CC1.Cl | 7.14 | 6.05 |  | 3.5 nM | Not Active | Not Active | Active | Active | 
